The text below walks through data of a melting point compilation (Tetko et al.; mined from patent text by program, amines drawn as free bases though some values may be those of a salt).

In general, melting point refers to the temperature of the solid-liquid transition. The compound `O=S(=O)(NC1(CO)CCCC1)c1ccc2c(Cl)cnc(Cl)c2c1` yielded a melting point of 148 to 150 °C. The compound `FC(F)(F)Sc1cn(-c2c(Cl)cc(C(F)(F)F)cc2Cl)c(Cl)n1` registered a melting point of 112 °C.

`O=C(O)C=Nc1cccc(F)c1C(=O)O` had a melting point of 169 °C.

As to `CCCCc1nc(SC)c(C(=O)O)n1Cc1ccc(-c2ccccc2-c2nnn[nH]2)cc1`, the melting point turned out to be 180 °C. With `O=C1Nc2cccnc2Oc2ccccc21` the figure was 268 to 270 °C.

Compound `O=c1ccc(-c2c(-c3ccccc3)nn3ccccc23)nn1C1CCNCC1` had a melting point of 115 to 117 °C. The figure for `COc1ccc(CN(C)CCCc2ccc(NC(=O)c3cccc4c(=O)c5ccccc5[nH]c34)cc2)cc1` is 155 °C; for `CC(C)C1C(=O)N(CCl)S(=O)(=O)N1C` (centres undefined) it is 118 to 120 °C; for `CCCS(=O)(=O)Oc1ccc(-c2c(C)c(C(=O)NN3CCCCC3)nn2-c2ccc(Cl)cc2Cl)cc1` it is 190 °C. With `CCc1nc(-c2cccc(C)c2)c(-c2ccnc(NC(=O)Cc3ccccc3)c2)s1` the figure was 107 to 108 °C; with `OCc1ncn2cc(Br)sc12`, 104 to 105 °C.

`O=C(CCc1ccccc1)NC1CCC(=O)N2CCCC(C(=O)NC3CC(=O)OC3OCc3ccccc3)N2C1=O` (centres undefined) showed a melting point of 92 to 94 °C. With `c1ccc(-c2ccc(C34CCCN(CC3)C4)nn2)cc1` (centres undefined) the figure was 133 to 134 °C; with `[N-]=[N+]=NCc1ccc(C(=O)O)c(Cl)c1`, 87 to 88 °C. `CC(C)(C)OC(=O)c1sc(NCc2ccccc2)c2c1CCCC2=O`: the melting point fell in the range of 125 to 126 °C. With `COc1c(C)c(NC(=O)NCCO)c(C)c2c1OCC2c1ccc(C(C)C)cc1` (centres undefined) the figure was 127 to 129 °C. The figure for `c1ccc(CN2CCC3(CC2)OCCO3)cc1` is below 50 °C; for `O=C1C(Cl)=C(Nc2ccc(S(=O)(=O)Nc3ccccc3)cc2)C(=O)c2ccccc21` it is 220 to 223 °C; for `NC(=O)N(O)CCNC(=O)Cc1cccc(Oc2ccccc2)c1` it is 150 to 152 °C. With `COCCn1nc2c(N)nc3ccccc3c2c1CCCCCl` the figure was 156 to 157 °C; with `CCOc1cc(C(CC(=O)O)N2Cc3ccccc3C2=O)ccc1OC` (centres undefined), 194 °C. In turn, `CC(=O)N1CCC(CCCC(=O)c2ccc(F)cc2)CC1` displayed a melting point of 77 to 78 °C.

Consider `O=C(CN1CCC(Cc2ccc(F)cc2)CC1)Nc1cccc(NCc2ccccc2)c1`, for which the melting point lay within 98 to 100 °C.

`CC(C(O)c1ccc(OCc2ccccc2)c(OCc2ccccc2)c1)N1CCC(n2c(=O)[nH]c3ccccc32)CC1` (centres undefined): the melting point is 146 to 148 °C.

Compound `COc1cc(C)cc(-c2nn(CC#N)cc2-c2cc(NC[C@H](C)O)nc(Cl)n2)c1` returned a melting point of 197 °C. With `CNC(=O)c1cc(NC(=O)c2ccc(C)c(Nc3nccc(-c4cccnc4)n3)c2)cc(N2CCOCC2)c1`, the melting point was in the range of 153 to 156 °C. The figure for `COc1ccc(C=O)cc1I` is 104 to 107 °C. `Cc1c(Cl)cccc1S(=O)(=O)Nc1ccc2c(c1)nc(C)n2C` showed a melting point of 283 to 284 °C. With `CCOC(=O)C1=C(C)NC(C)=C(/C=C/S(=O)(=O)NC(C)C)C1Cc1cccc([N+](=O)[O-])c1` (centres undefined) the figure was 191 to 193 °C; with `CCCCCCCCCCOCCCN=C=O`, 78 to 82 °C. Compound `O=C1O[C@@H](CO)CN1c1cccc(F)c1` came in with a melting point of 106 to 108 °C. With `Cc1cc2c3c(cc(C)c2[nH]c1=O)CC(C)(CN=[N+]=[N-])O3` (centres undefined) the figure was 232 to 234 °C; with `CC(=O)OCC1OC(n2c(Cl)nc3cc(Br)c(Br)cc32)C(OC(C)=O)C1OC(C)=O` (centres undefined), 140 to 142 °C; with `CNC(=O)c1cc(C)ccc1Nc1nc(Nc2ccc3c(c2)CCN(CCOC)CC3)ncc1Cl`, 210 to 212 °C. With `N#Cc1ccc(N2C(=O)NC3(CCOCC3)C2=O)cc1C(F)(F)F` the figure was 192 to 193 °C. In turn, `O=C(CCCCCBr)c1cc2c3c(c1)CCN3C(=O)CC2` showed a melting point of 97 to 98 °C. Take `CC(C)NC(=O)c1ccc([N+](=O)[O-])cc1`: the melting point was in the range of 152 to 154 °C. With `C[C@H]1C[C@@H](Nc2ccccc2)c2ccccc2N1C(=O)c1ccncc1` (relative stereo), the melting point stood at 121 °C.

In turn, `CCCCC1CCCc2oc(C(=N)N)cc21` (centres undefined) yielded a melting point of 243 to 245 °C. The figure for `CCSc1nc2c(C(=O)OC)sc(C)c2[nH]1` is 159 to 160 °C; for `O=C(Nc1n[nH]c(=S)s1)NC(Cc1ccccc1)C(=O)NCc1ccccn1` (centres undefined) it is 159 to 161 °C. With `COc1cccc([C@H]2O[C@H](CC(=O)NCP(=O)(O)O)C(=O)N(CC(C)(C)C)c3ccc(Cl)cc32)c1OC` the figure was 152 to 155 °C. The figure for `NC(=S)C(CN1CCOCC1)c1ccccn1` (centres undefined) is 102 to 104 °C; for `COc1cc(OC)c(C(=O)c2cc(Cl)ccc2NC(C)=O)c(OC)c1` it is 159 to 160 °C. Take `CS(=O)(=O)c1ccc(-c2ccc(Br)n2-c2ccc(F)cc2)cc1`: the melting point was in the range of 174 to 176 °C. The figure for `Cc1ccc([N+](=O)[O-])cc1Nc1nccc(-c2cccnn2)n1` is 275 to 277 °C. The figure for `CC(C)c1cccc(-n2c(C(=O)Nc3ccc4c(ccn4C)c3)cc3cc(OC(F)(F)F)ccc32)c1` is 164 to 165 °C. For `CC(C)c1nn(-c2ccc(C(F)(F)F)cn2)cc1CCCOc1cccc(OC(C)(C)C(=O)O)c1`, the melting point is 101 to 102 °C. With `CCCCCCCCCCCCCCCCSCC(CNS(=O)(=O)CCCCl)NC(=O)OC` (centres undefined) the figure was 67 to 69 °C. In turn, `CNC(=O)C1CC(c2ccc(-c3ccc(N4C[C@H](Cn5ccnn5)OC4=O)cc3F)cn2)=NO1` (some centres undefined) yielded a melting point of 185 to 195 °C. On to `O=C(O)COc1ccccc1Cn1nc(-c2cccs2)c(Cc2cc3c(cc2Cl)OCO3)c1C(=O)O`, for which the melting point is above 260 °C.

`NC(=O)c1ncoc1-c1cccc(O)c1` came in with a melting point of 202 to 204 °C. The figure for `CCCCC1(O)CCN(C(=O)C(c2ccccc2)n2cnc3[nH]ncc3c2=S)CC1` (centres undefined) is 98 to 102 °C; for `CC1(C)C(=O)Nc2cc3[nH]c(-c4ccc(Cl)c(Cl)c4)nc3cc21` it is 320 to 325 °C; for `O=C(O)CCc1cnoc1-c1ccc(Cl)c(Br)c1` it is 177 to 180 °C. Consider `COC(=O)COc1ccc(C(C)=O)c2ccccc12`, for which the melting point fell in the range of 123 to 125 °C.

The compound `CCCCCCCCCCCCCCCCCCOc1cc(OCCCOc2ccccc2)cc(C(=O)O)c1` gave a melting point of 79 to 81 °C.

Turning to `O=C1CCCc2scnc21`, the melting point was 121 to 122 °C. Regarding `CNC(=O)C(C)Oc1ncn(-c2ccc(C(F)(F)F)cc2)n1` (centres undefined), the melting point was 157 to 158 °C. With `CC(C)c1cc(Cl)cc(C(C)C)c1NC(=O)NS(=O)(=O)c1cccc(S(N)(=O)=O)c1` the figure was 172 to 177 °C; with `CCCN(C)c1ncc2cc(-c3ccc(C(=O)N4CCN(C)CC4)cc3)[nH]c2n1`, 222 to 224 °C.

Compound `CCCc1nc2c(C)ccnc2n1Cc1ccc(-c2ccncc2-c2nnn[nH]2)cc1` displayed a melting point of 110 to 112 °C. With `Clc1ccc(CNc2ccccc2-n2ccnc2)c(Cl)c1` the figure was 100 to 103 °C; with `CC(=O)N1C(=O)C(C(=O)c2cccnc2)c2ccccc21` (centres undefined), 141 to 142 °C.

Compound `CC(C)C(=O)Nc1ccc(C(=O)O)cc1N` had a melting point of 159 to 160 °C. Turning to `CCN(CC)C(=O)c1ccccc1-c1ccc(OC)cc1`, the melting point lay in the range of 46 to 47 °C. With `C#CCSc1cc(C(=O)O)cc(S(N)(=O)=O)c1Oc1ccccc1` the figure was 197 to 198 °C; with `CCOC(=O)c1cc(Br)c(C(=O)OCC)cc1F`, 30 °C. The figure for `CCOC(=O)c1c(N)c(Cl)cn1C` is 48 °C; for `Cc1cc(-c2nnc3c4ccccc4c(OCc4ncn(C)n4)nn23)no1` it is 249 to 251 °C. The figure for `Cc1ccc(Cl)cc1N1CCCN(C(C)C)C1=S` is 176 to 178 °C. Consider `O=C(CNc1ccccc1)Nc1c(Cl)cccc1C(=O)O`, for which the melting point fell in the range of 184 to 185 °C. With `CCOC(=O)COc1ccccc1Cc1ccc2ccccc2c1O` the figure was 124 to 125 °C; with `Cc1ccc(NC(=O)NCc2cccc3c2C(=O)N(C2CCC(=O)NC2=O)C3=O)cc1C` (centres undefined), 222 to 224 °C. As for `C=C(CC(C)C(=O)O)C(=O)O` (centres undefined), the melting point lay in the range of 106 to 108 °C.

As for `N#CC(c1ccccc1)(c1ccccc1)[C@H]1CCCN(CCc2ccc3c(c2)CCO3)C1`, the melting point was in the range of 137 to 140 °C. For `C=CNC(=S)n1nc(Oc2ncc(C(F)(F)F)cc2Cl)cc1C`, the melting point is 90 to 92 °C. The figure for `O=C(CCCCCc1ccc(Cl)cc1)N1CCN(c2cnccn2)CC1` is 88 to 89 °C; for `CS(=O)(=O)O[C@@H]([C@H](OS(C)(=O)=O)[C@H](Cc1ccccc1)NC(=O)OCc1ccccc1)[C@H](Cc1ccccc1)NC(=O)OCc1ccccc1` it is 153 to 155 °C.

On to `Nc1ccc(-c2ccc(Cl)cc2)cn1`, for which the melting point fell in the range of 122 to 124 °C. The figure for `N#CC(C#N)C(=O)c1ccoc1` is 98 to 99 °C; for `COc1cc(C=C2CC(=O)OC2=O)cc(OC)c1OC` it is 184 to 187 °C. `CC1=C(CCO)c2cc(F)ccc2C1` displayed a melting point of 65 to 66.5 °C. With `Nc1ccc(-c2nc3n(c2-c2ccc(N)cc2)CCS3)cc1` the figure was 205 to 206 °C. The figure for `C=C(C)c1cccc2c1nc(-c1c(F)cccc1F)n2Cc1c(F)cccc1F` is 156 to 158 °C; for `Cc1ccc(C=NC2CCN(c3cc4c(cc3F)c(=O)c(C(=O)O)cn4-c3ccc(F)cc3)C2)cc1` (centres undefined) it is 233 to 234 °C; for `CN1CCN(c2ccc3nc(N)c(C#N)c(NCc4ccccc4)c3c2)CC1` it is 176 °C. The figure for `O=S1(=O)c2ccc(Cl)c3cccc(c23)N1CCCN1CCN(c2ccc(F)cc2)CC1` is 125 °C.

Regarding `O=C(Cc1cc(C(=O)c2ccc(I)c([N+](=O)[O-])c2)sc1-c1ccccc1)NO`, the melting point fell in the range of 147 to 151 °C.
